# Laboratory results as given in patent US11685734B2, “ATM kinase inhibitors and compositions and methods of use thereof” (CHDI Foundation, Inc., priority 2019, dated 2023).
# Tests used:
# [1] = target: Recombinant, full length human FLAG-tagged ATM (Homo sapiens (Human), UniProt Q13315); assay: ATM ELISA for p53 S15 phosphorylation; format: biochemical; conditions: 0.75 nM ATM, 25 nM p53, 10 μM ATP, 30 min at 20° C.; read-out: ATM BIO IC50
# Protocol: ATM: Recombinant, full length human FLAG-tagged ATM activity (Eurofins 14-933) was measured in an ELISA for p53 S15 phosphorylation, in a 384 well V-bottom polypropylene plate (Greiner Bio One 781280). Reactions contained 0.75 nM ATM, 25 nM full length myc tagged p53 (Eurofins 23-034), 10 μM UltraPure ATP (Promega V915B) and serial dilutions of inhibitors (0.1% DMSO final) in 25 mM HEPES, pH 7.5. 5 mM MgCl2, 2.5 mM MnCl2, 0.006% Brij-35, 0.5% glycerol, 0.1 mg/ml BSA, 0.5 mM DTT and were allowed to proceed for 30 min at 20° C. 70 mM EDTA final terminated the kinase reactions. An aliquot of the terminated reaction (25 μl) was transferred to a 384-well, high binding microplate (Greiner Bio One 781061), precoated with anti-myc capture antibody overnight (Millipore 05-724) diluted in 1:1000 in PBS, then blocked with Odyssey blocking buffer (LI-COR Biosciences 92740000) for 60 min at 20° C. The terminated reaction was allowed to capture for 2 h at 20° C. Phosphorylation was measured using an antibody specific to p53 S15 phosphorylation (1:5000 Abcam ab38497), anti-rabbit HRP (1:1000 Cell Signalling Technology, 7074) and TMB (ab171522). Antibodies were diluted in Odyssey blocking buffer and incubated for 60 min at 20° C. Three washes with PBS containing 0.05% (v/v) Tween 20 (PBS-T) were performed between each incubation. The TMB reaction was stopped with an equal volume of 0.2 M sulfuric acid and absorbance read at 450 nm on the Perkin Elmer Envision within 30 min of terminating the reaction. […] IC50 values represent the mean from at least two independent experiments.
# cellular ATM activity = cellular ATM activity (Homo sapiens (Human), UniProt Q13315); assay: Inhibition of cellular ATM activity: etoposide-stimulated KAP1 phosphorylation in U20S cells; format: cell-based; conditions: 100 μM etoposide, 60 min, read-out: ATM CELL IC50
# Sequence of cellular ATM activity (Q13315 whole entry): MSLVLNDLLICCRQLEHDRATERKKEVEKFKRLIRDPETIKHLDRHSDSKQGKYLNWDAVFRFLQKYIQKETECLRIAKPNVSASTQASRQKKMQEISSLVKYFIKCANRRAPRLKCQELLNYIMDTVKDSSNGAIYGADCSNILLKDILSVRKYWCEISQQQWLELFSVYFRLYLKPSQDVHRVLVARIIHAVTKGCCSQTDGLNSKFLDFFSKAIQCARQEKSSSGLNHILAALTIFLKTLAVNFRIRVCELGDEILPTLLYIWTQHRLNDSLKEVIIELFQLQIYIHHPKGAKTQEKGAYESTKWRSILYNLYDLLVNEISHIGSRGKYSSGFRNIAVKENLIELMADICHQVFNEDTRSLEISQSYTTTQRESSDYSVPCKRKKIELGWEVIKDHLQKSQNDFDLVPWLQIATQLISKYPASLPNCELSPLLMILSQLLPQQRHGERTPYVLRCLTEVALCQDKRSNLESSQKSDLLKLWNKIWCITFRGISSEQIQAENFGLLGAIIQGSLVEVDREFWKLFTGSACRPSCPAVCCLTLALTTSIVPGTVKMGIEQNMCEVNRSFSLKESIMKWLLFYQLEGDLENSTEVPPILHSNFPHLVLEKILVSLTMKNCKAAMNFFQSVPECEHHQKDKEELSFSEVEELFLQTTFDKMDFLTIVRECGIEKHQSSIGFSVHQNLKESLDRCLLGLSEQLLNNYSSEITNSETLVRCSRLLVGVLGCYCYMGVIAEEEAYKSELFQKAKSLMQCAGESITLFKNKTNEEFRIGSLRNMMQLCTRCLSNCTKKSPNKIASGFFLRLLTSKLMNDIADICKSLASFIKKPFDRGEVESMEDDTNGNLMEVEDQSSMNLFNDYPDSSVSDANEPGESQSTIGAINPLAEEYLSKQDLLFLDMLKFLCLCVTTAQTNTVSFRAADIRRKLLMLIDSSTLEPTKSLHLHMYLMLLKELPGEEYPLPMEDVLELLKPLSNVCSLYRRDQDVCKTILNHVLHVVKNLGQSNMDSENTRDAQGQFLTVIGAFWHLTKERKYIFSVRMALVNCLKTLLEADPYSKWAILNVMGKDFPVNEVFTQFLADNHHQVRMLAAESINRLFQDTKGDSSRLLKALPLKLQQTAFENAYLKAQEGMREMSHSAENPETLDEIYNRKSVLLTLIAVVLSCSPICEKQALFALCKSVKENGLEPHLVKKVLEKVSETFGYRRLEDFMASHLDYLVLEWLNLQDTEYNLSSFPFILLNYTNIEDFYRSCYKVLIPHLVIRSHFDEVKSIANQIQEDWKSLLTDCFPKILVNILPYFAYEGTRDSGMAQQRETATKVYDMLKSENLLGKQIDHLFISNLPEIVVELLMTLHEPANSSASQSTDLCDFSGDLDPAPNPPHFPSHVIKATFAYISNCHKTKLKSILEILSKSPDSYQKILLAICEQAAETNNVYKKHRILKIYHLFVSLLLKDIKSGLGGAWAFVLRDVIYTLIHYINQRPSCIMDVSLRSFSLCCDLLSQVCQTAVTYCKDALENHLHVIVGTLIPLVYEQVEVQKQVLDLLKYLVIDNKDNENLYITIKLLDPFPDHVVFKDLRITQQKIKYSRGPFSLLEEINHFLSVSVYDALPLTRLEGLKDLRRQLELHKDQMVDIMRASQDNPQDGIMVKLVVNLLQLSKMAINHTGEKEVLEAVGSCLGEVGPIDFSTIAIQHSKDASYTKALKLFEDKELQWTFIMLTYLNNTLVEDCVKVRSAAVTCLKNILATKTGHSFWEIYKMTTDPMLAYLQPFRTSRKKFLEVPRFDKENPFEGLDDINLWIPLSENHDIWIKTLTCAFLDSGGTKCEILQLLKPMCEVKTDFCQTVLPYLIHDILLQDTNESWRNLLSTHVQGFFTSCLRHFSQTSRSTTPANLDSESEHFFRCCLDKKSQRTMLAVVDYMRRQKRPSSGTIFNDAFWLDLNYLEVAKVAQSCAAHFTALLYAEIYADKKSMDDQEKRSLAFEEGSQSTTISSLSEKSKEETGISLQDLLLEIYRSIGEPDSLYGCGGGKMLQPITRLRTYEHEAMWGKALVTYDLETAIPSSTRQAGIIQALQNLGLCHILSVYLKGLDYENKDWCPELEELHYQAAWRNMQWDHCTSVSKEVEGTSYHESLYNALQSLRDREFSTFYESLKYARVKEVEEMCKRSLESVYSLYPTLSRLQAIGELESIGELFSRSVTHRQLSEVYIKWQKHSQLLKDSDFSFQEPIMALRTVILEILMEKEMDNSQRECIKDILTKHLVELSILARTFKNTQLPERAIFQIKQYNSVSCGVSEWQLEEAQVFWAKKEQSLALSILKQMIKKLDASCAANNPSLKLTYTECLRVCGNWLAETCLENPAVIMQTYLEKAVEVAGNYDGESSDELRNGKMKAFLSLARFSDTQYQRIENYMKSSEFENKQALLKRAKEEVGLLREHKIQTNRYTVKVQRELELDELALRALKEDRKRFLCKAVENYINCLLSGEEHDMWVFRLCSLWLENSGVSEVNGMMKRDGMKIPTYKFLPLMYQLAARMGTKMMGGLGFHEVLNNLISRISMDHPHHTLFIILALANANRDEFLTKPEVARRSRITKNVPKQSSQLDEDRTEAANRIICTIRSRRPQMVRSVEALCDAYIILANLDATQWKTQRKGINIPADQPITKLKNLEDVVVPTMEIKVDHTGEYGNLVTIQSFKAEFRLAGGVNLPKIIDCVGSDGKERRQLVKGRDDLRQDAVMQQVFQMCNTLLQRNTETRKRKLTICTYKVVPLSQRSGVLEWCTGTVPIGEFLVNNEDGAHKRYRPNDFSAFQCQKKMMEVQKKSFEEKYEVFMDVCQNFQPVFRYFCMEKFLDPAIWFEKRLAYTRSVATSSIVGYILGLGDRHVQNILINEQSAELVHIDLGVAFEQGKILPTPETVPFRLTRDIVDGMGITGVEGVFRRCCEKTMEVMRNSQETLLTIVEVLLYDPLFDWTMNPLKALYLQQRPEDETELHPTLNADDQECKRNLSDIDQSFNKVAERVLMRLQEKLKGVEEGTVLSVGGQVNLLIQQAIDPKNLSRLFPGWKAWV
# Protocol: Inhibition of cellular ATM activity was determined by changes in etoposide-stimulated KAP1 phosphorylation, based on the work of Guo et al. 2014.
# Cryopreserved U20S cells were plated overnight at 6 k cells/well in black walled, clear bottomed 384 well plates (Greiner Bio One 781090). After overnight incubation (37 C, 5% CO2), cells were incubated with titrations of test compounds (0.3% DMSO final) in the presence of 100 μM etoposide (Sigma E1383) to stimulate ATM via induction of double stranded DNA breaks. After 60 min, cells were fixed using 100% cold methanol and incubated at −20° C. for 10 min. Fixed cells were washed with PBS containing 0.05% (v/v) Tween 20 (PBS-T) prior to a 60 minute blocking step in Odyssey blocking buffer (LI-COR Biosciences 92740000). Primary antibodies (1:1000 phosphorylated KAP1: Cell Signalling Technology 4127, 1:5000 total KAP1: Cell Signaling Technology 5868) were diluted in Odyssey blocking buffer and incubated overnight at 4° C., before addition of IRDye(R) conjugated secondary antibodies (LI-COR Biociences 926-32211, LI-COR Biosciences 926-68070) diluted 1:2000 in Odyssey blocking buffer for 60 min at room temperature and detection by LI-COR Odyssey (ImageStudio version 2.1.10, focus offset 4 mm, resolution 169 μm, lowest quality, intensities of 1 and 3 for 700 and 800 channels respectively). Immunoreactivity was quantified and the ratio of phosphorylated KAP1 calculated by dividing by the total KAP1 immunoreactivity. The percentage of inhibition was calculated for each concentration of compound using 100% (100 μM etoposide+30 μM KU-60019) and 0% effect controls (100 μM etoposide+DMSO). IC50 values represent the mean from at least two independent experiments.
# Sequence of Recombinant, full length human FLAG-tagged ATM (Q13315 whole entry): as above
Compound,IC50 [1] [nM],IC50 (cellular ATM activity) [nM]
C[C@H]1CCCN(c2nc(N3CCOCC3)cc(=O)[nH]2)[C@@H](Cc2ccc(F)cc2)C1 [Example 235],5.3,436
COc1ccccc1CC1CC(F)(F)CCCN1c1nc(N2CCOCC2)cc(=O)[nH]1 (stereo not shown) [Example 239],36.5,2020
"COc1cc(F)ccc1C[C@H]1CCCCCN1c1cc(N2CCOCC2)cc(=O)[nH]1 [Example 50, (R)-6-(2-(4-fluoro-2-methoxybenzyl)azepan-1-yl)-4-morpholinopyridin-2(1H)-one]",23,977
COc1ccc(OC)c(C[C@H]2CCCCCN2c2cc(N3CCOCC3)cc(=O)[nH]2)c1 [Example 66],18.7,603
"C[C@@H]1CN(c2cc(=O)[nH]c(N3CCC[C@@H]3Cc3ccc(Cl)c(Cl)c3)n2)CCO1 [Example 278, 2-[(2R)-2-[(3,4-dichlorophenyl)methyl]pyrrolidin-1-yl]-4-[(2R)-2-methylmorpholin-4-yl]-1H-pyrimidin-6-one]",89.7,969
COc1ccccc1C[C@H]1[C@H](C)CCN1c1nc(N2CCOCC2)cc(=O)[nH]1 [Example 217],7.1,499
COc1ccccc1C[C@H]1[C@H]2C[C@H]2CN1c1cc(N2CCOCC2)cc(=O)[nH]1 [Example 128],14.7,711
"O=c1cc(N2CCOCC2)cc(N2CCCCC[C@@H]2Cc2ccsc2)[nH]1 [Example 64, (R)-4-morpholino-6-(2-(thiophen-3-ylmethyl)azepan-1-yl)pyridin-2(1H)-one]",42.8,933
O=c1cc(N2CCOCC2)nc(N2CCCCC[C@@H]2Cc2cccc3c2OCC3)[nH]1 [Example 225],3.9,260
"O=c1cc(N2CCOCC2)cc(N2CCCCC[C@@H]2Cc2ccc(F)cc2)[nH]1 [Example 52, (R)-6-(2-(4-fluorobenzyl)azepan-1-yl)-4-morpholino pyridin-2(1H)-one]",35.3,839
"O=c1cc(N2CCOCC2)cc(N2CCC(F)(F)[C@@H]2Cc2ccccc2)[nH]1 [Example 98, (S)-6-(2-benzyl-3,3-difluoropyrrolidin-1-yl)-4-morpholinopyridin-2(1H)-one]",38.4,925
O=c1cc(N2CCOCC2)nc(N2C[C@@H]3C[C@@H]3[C@@H]2Cc2ccc(F)cc2)[nH]1 [Example 207],4.4,207
"O=c1cc(N2CCOCC2)cc(N2CCC[C@@H]2Cc2cccc(OC3CCOCC3)c2)[nH]1 [Example 146, (R)-4-morpholino-6-(2-(3-((tetrahydro-2H-pyran-4-yl)oxy)benzyl)pyrrolidin-1-yl)pyridin-2(1H)-one]",74.2,1860
"Cc1ccccc1C[C@H]1CCCCCN1c1nc(N2CCOCC2)cc(=O)[nH]1 [Example 181, (R)-2-(2-(2-methylbenzyl)azepan-1-yl)-6-morpholinopyrimidin-4(3H)-one]",1.2,548
COc1cccc(C[C@H]2CCCCCN2c2nc(N3CCOCC3)cc(=O)[nH]2)c1OC [Example 230],71.2,881
"C[C@H]1CCCN(c2nc(N3CCO[C@H](C)C3)cc(=O)[nH]2)[C@@H](Cc2ccc(F)cc2)C1 [Example 313, 2-((2R,4S)-2-(4-fluorobenzyl)-4-methylazepan-1-yl)-6-((R)-2-methylmorpholino)pyrimidin-4(3H)-one]",42.3,1660

Compound,IC50 [1] [nM],IC50 (cellular ATM activity) [nM]
COc1cccc(C[C@H]2CCCCCN2c2nc(N3CCOCC3)cc(=O)[nH]2)c1 [Example 203],1.9,427
"C[C@@H]1CN(c2cc(=O)[nH]c(N3CCCCC[C@@H]3Cc3ccccc3)n2)CCO1 [Example 270, 2-((R)-2-benzylazepan-1-yl)-6-((R)-2-methylmorpholino)pyrimidin-4(3H)-one]",7.4,818
O=c1cc(N2CCOCC2)nc(N2C[C@H]3C[C@H]3[C@@H]2Cc2ccc(F)cc2)[nH]1 [Example 209],8.9,377
"C[C@@H]1CN(c2cc(=O)[nH]c(N3CCCCC[C@@H]3Cc3ccc(F)cc3)n2)CCO1 [Example 304, 2-((R)-2-(4-fluorobenzyl)azepan-1-yl)-6-((R)-2-methylmorpholino)pyrimidin-4(3H)-one]",19.2,957
"CC1C[C@H](Cc2ccccc2)N(c2nc(N3CCO[C@H](C)C3)cc(=O)[nH]2)C1 (single isomer, unassigned) [Example 320]",90.9,1680
"C[C@@H]1CN(c2cc(=O)[nH]c(N3C[C@H]4C[C@H]4[C@@H]3Cc3ccccc3)n2)CCO1 [Example 291, 2-((1R,2S,5S)-2-benzyl-3-azabicyclo[3.1.0]hexan-3-yl)-6-((R)-2-methylmorpholino)pyrimidin-4(3H)-one]",11.1,562
"COc1ccccc1C[C@H]1[C@H](C)CCN1c1nc(N2CCO[C@H](C)C2)cc(=O)[nH]1 [Example 296, 2-((2S,3R)-2-(2-methoxybenzyl)-3-methylpyrrolidin-1-yl)-6-((R)-2-methylmorpholino)pyrimidin-4(3H)-one]",40.5,1850
"COc1ccccc1C[C@H]1CCCN1c1cc(N2CCOCC2)cc(=O)[nH]1 [Example 7, (R)-6-(2-(2-methoxybenzyl)pyrrolidin-1-yl)-4-morpholinopyridin-2(1H)-one]",44.6,1020
"O=c1cc(N2CCOCC2)cc(N2CCCCC[C@@H]2Cc2cccc3c2OCO3)[nH]1 [Example 70, (R)-6-(2-(benzo[d][1,3]dioxol-4-ylmethyl)azepan-1-yl)-4-morpholinopyridin-2(1H)-one]",2.4,274
Cc1cc(C[C@H]2CCCN2c2nc(N3CCOCC3)cc(=O)[nH]2)cc(C)n1 [Example 188],28.7,1060
"COC[C@@H](C)Oc1ccc(C[C@H]2CCCCCN2c2cc(N3CCOCC3)cc(=O)[nH]2)cc1 [Example 151, 6-((R)-2-(4-(((R)-1-methoxypropan-2-yl)oxy)benzyl)azepan-1-yl)-4-morpholinopyridin-2(1H)-one]",20.9,1020
"Cc1ccc(C[C@H]2CCCN2c2nc(N3CCO[C@H](C)C3)cc(=O)[nH]2)cc1 [Example 274, 4-[(2R)-2-methylmorpholin-4-yl]-2-[(2R)-2-(p-tolylmethyl)pyrrolidin-1-yl]-1H-pyrimidin-6-one]",32.7,410
"O=c1cc(N2CCOCC2)cc(N2CCCCC[C@@H]2Cc2cccs2)[nH]1 [Example 31, 4-morpholino-6-[(2R)-2-(2-thienylmethyl)azepan-1-yl]-1H-pyridin-2-one]",12.3,260
Cc1ccc(C[C@H]2CCCN2c2nc(N3CCOCC3)cc(=O)[nH]2)cc1 [Example 186],14.4,852
"COc1ccccc1C[C@H]1CC(F)(F)CCCN1c1cc(N2CCOCC2)cc(=O)[nH]1 [Example 62, (S)-6-(4,4-difluoro-2-(2-methoxybenzyl)azepan-1-yl)-4-morpholinopyridin-2(1H)-one]",40.5,1250
"C[C@@H]1CN(c2cc(=O)[nH]c(N3CCC(F)(F)[C@@H]3Cc3ccccc3)n2)CCO1 [Example 322, 2-((S)-2-benzyl-3,3-difluoropyrrolidin-1-yl)-6-((R)-2-methylmorpholino)pyrimidin-4(3H)-one]",33.2,2840
